Marks after values point to notes of the source that are not given here.
Columns and labels:
Format in all cases: in vivo, Arabidopsis thaliana
[1] = test system: tnp seedlings; assay: Penetrance of the tnp phenotype in seedlings germinated and grown on medium containing the compound; conditions: for effect on penetrance of the tnp phenotype: tnp seed germinated and grown in presence of the compound, result in words
Experimental: In order to establish whether the incomplete penetrance was due to methylation-dependent gene silencing, individual T3 sibling lines were germinated in the presence of 100 μM 5-azacytidine, a methylation inhibitor (Jones and Taylor, 1980 Cell 20, 85-93). […]
The tnp mutant phenotype is similar to that of the pkl mutant, which is characterised by the development of swollen and greenish roots that accumulate triacylglycerols and protein bodies (Ogas et al, 1997 Science 277, 91-94; Ogas et al, 1999 Proc. Natl. Acad. Sci. USA 96, 13839-13844). The penetrance of the pkl mutant phenotype is also variable and is affected by gibberellic acid and the gibberellin biosynthesis inhibitor, uniconazole-P. In order to determine whether growth factors have an effect on the penetrance of the tnp phenotype, the tnp seed was germinated and grown in the presence of a number of compounds (see Table 2).
Given the large quantities of starch stored in tnp, the effect of sugars on penetrance was examined. […] Furthermore, the effect of 1% glucose or fructose was not as potent as the effect obtained from sucrose alone. […] The effect of sugars on the penetrance of tnp was not due to an osmotic effect, since mannitol was ineffective at inducing penetrance in the absence of sugar (data not shown).

[2] = test system: LEC2 transcripts; assay: Semi-quantitative RT-PCR of LEC2 transcript in treated tnp seedlings; conditions: tnp seedlings at 1-2 days post-germination
From the text: (§1) Alternatively, it is possible that these compounds may act by changing the expression of other key embryonic regulators to alter penetrance. FUS3 and LEC2 play key roles in embryogenesis and the transition to germination (Luerben et al, 1998 Plant J. 15, 755-764; Stone et al, 2001 Proc. Natl. Acad. Sci. USA 98, 11806-11811; Kroj et al, 2003 Development 130, 6065-6073). Semi-quantitative RT-PCR was used to determine whether the transcript levels in these genes were affected in tnp seedlings at 1-2 days post-germination in response to treatment with these compounds (see FIG. 10b).

[3] = test system: LEC1 transcript; assay: Semi-quantitative RT-PCR of LEC1 transcript in treated germinating seedlings; conditions: tnp and pls control seedlings, RNA at 1-2 days post-germination
Experimental: To investigate the mechanism by which these compounds work, germinating seedlings were treated with each of the compounds, as well as with gibberellic acid (which has no effect on penetrance), and RNA was extracted at 1-2 days post-germination. […] Therefore, the effect of these compounds on penetrance is not mediated by alterations in LEC1 transcript levels, although post-transcriptional or translational effects cannot be excluded.

[4] = test system: FUS3 transcript; assay: Semi-quantitative RT-PCR of FUS3 transcript in treated tnp seedlings; conditions: tnp seedlings at 1-2 days post-germination
From the text: as §1

[5] = Table 2 second series (1/2MS10 control 47.8), 10 nM
[6] = Table 2 second series (1/2MS10 control 47.8), 100 nM
[7] = Table 2 first series (1/2 MS10 control 32.8), 10 nM
[8] = Table 2 second series (1/2MS10 control 47.8), 1 μM
[9] = Table 2 first series (1/2 MS10 control 32.8), 10 uM

## CC(C)(C)[C@@H](O)[C@@H](Cc1ccc(Cl)cc1)n1cncn1 (racemic) [Paclobutrazol, paclobutrazol]
[1]; [5]
  % tnp: 84.7%
[1]; [6]
  % tnp: 72.3* %
[1]
  effect on penetrance of the tnp phenotype: increased
[2]
  levels of LEC2 transcripts: no effect
[3]
  LEC1 transcript levels: unaltered
[4]
  FUS3 transcript levels: did not have a significant effect

## O=C(O)COc1ccc(Cl)cc1Cl [2,4-D, 2,4-dichlorophenoxyacetic acid]
[1]; 0% suc. + 10 nm 2,4-D
  % tnp: 2%
[1]; 1% suc. + 10 nm 2,4-D
  % tnp: 85.1%
[1]; 2% suc. + 10 nm 2,4-D
  % tnp: 92.3%
[1]; 3% suc. + 10 nm 2,4-D
  % tnp: 84.1%
[1]; 4% suc. + 10 nm 2,4-D
  % tnp: 68.9%
[1]; 5% suc. + 10 nm 2,4-D
  % tnp: 82.4%
[1]; 6% suc. + 10 nm 2,4-D
  % tnp: 66.0%
[1]; [7]
  % tnp: 78.1%
[1]; [5]
  % tnp: 82.1%
[1]; [6]
  % tnp: 95.3%
[1]; [8]
  % tnp: 98.2%
[1]; addition of 10 nM 2,4-D to the medium, even in absence of sucrose
  tnp penetrance compared with sucrose alone: greater penetrance
[1]; concentration of 1 μM
  penetrance of the tnp phenotype: ~100%
[1]; medium containing 20% sucrose and 25 nM 2,4-D, no effect on growth
  penetrance of tnp: highest penetrance
[1]
  effect on penetrance of the tnp phenotype: positive effect
[2]
  levels of LEC2 transcripts: significantly reduce
[4]
  FUS3 transcript levels: increase

## Nc1ncn([C@@H]2O[C@H](CO)[C@@H](O)[C@H]2O)c(=O)n1 [5-AZA-C, 5-azacytidine]
[1]; T3 Line 1, 100 μm 5-AZA-C, 1/2MS10 control 28
  % tnp: 62%
[1]; T3 Line 7, 100 μM 5-AZA-C, 1/2MS10 control 0
  % tnp: 7.4%
[1]; T3 Line 21, 100 μM 5-AZA-C, 1/2MS10 control 41
  % tnp: 48%
[1]; T3 sibling lines germinated in presence of 100 μM, highly variable between lines
  penetrance of the tnp phenotype compared with control levels: increase in the penetrance

## CC1=CC(=O)CC(C)(C)[C@@]1(O)/C=C/C(C)=C\C(=O)O [ABA, abscisic acid]
[1]
  effect on penetrance of the tnp phenotype: not found to have an effect

## NC1(C(=O)O)CC1 [ACC, 1-aminocyclopropane-1-carboxylate]
[1]; Table 2 first series (1/2 MS10 control 32.8), 100 pM
  % tnp: 29.3%
[1]
  effect on penetrance of the tnp phenotype: little effect

## c1ccc(CNc2ncnc3nc[nH]c23)cc1 [BA, N(6)-benzyladenine]
[1]; Table 2 first series (1/2 MS10 control 32.8), 100 nM
  % tnp: 9.9%
[1]; [5]
  % tnp: 55%
[1]; [6]
  % tnp: 35.6%
[1]; [8]
  % tnp: 5%
[1]
  effect on penetrance of the tnp phenotype: markedly suppressed
[2]
  levels of LEC2 transcripts: significantly reduce
[4]
  FUS3 transcript levels: reduction

## C=C1C[C@]23C[C@@]1(O)CC[C@H]2[C@@]12C=C[C@H](O)[C@@](C)(C(=O)O1)[C@H]2[C@@H]3C(=O)O [GA, gibberellic acid]
[1]; 10 nM paclobutrazol and 10 μM gibberellic acid together, data not shown
  effect on the positive effect of paclobutrazol on tnp penetrance: partially suppressed
[1]; [9]
  % tnp: 37.3%
[1]; [5]
  % tnp: 42.1%
[1]; [6]
  % tnp: 52%
[1]; [8]
  % tnp: 58.4%
[1]; Table 2 second series (1/2MS10 control 47.8), 10 μM
  % tnp: 45.4%
[1]
  effect on penetrance of the tnp phenotype: weakly positive effect
[2]
  levels of LEC2 transcripts: significantly reduce
[3]
  LEC1 transcript levels: unaltered
[4]
  FUS3 transcript levels: did not have a significant effect

## O=C(O)Cc1c[nH]c2ccccc12 [IAA, indole-3-acetic acid]
[1]; Table 2 first series (1/2 MS10 control 32.8), 50 nM
  % tnp: 69.1%
[1]
  effect on penetrance of the tnp phenotype: positive effect

## O=C(O)Cc1cccc2ccccc12 [NAA, naphthaleneacetic acid]
[1]; [7]
  % tnp: 42.8%

## O=C(O)COc1cccc2ccccc12 [NOA, naphthoxyacetic acid]
[1]; [9]
  % tnp: 58.8%
[1]
  effect on penetrance of the tnp phenotype: positive effect

## O=C(O)c1ccccc1C(=O)Nc1cccc2ccccc12 [NPA, 1-N-naphthylphthalamic acid]
[1]; [9]
  % tnp: 55.4%
[1]
  effect on penetrance of the tnp phenotype: positive effect

## O=C(CO)[C@@H](O)[C@H](O)[C@H](O)CO [fructose]
[1]; 1% sugar, data not shown
  effect on tnp penetrance compared with sucrose alone: not as potent

## OC[C@@H](O)[C@@H](O)[C@H](O)[C@H](O)CO [mannitol]
[1]; osmotic control, data not shown
  inducing tnp penetrance in the absence of sugar: ineffective

## OC[C@H]1O[C@@](CO)(O[C@H]2O[C@H](CO)[C@@H](O)[C@H](O)[C@H]2O)[C@@H](O)[C@@H]1O [suc., sucrose]
[1]; 1% suc. in medium
  % tnp: 60.5%
[1]; 2% suc. in medium
  % tnp: 65.4%
[1]; 3% suc. in medium
  % tnp: 58.4%
[1]; 4% suc. in medium
  % tnp: 52.4%
[1]; 5% suc. in medium
  % tnp: 54.1%
[1]; 6% suc. in medium
  % tnp: 42.8%
[1]; concentration of 2% sucrose
  level of tnp penetrance over sucrose concentrations: highest level of penetrance
